Results reported in patent US8067613B2 (Abbott Laboratories, priority 2007, dated 2011).

Target: T1, Recombinant Human Poly(ADP-Ribose)Polymerase (PARP), PARP-1 (Homo sapiens, UniProt P09874)
T1 construct: purchased Trevigen (Gaithersburg, Md.); host or cells: E. coli
Assay: PARP1 assay (SPA/FlashPlate, [3H]-NAD+ incorporation into biotinylated histone H1)
Format: biochemical
Details: 1 nM PARP enzyme, 1.5 μM [3H]-NAD+, 200 nM biotinylated histone H1, 200 nM slDNA; Ki from inhibition curves at various substrate concentrations
Procedure: Nicotinamide[2,5′,8-3H]adenine dinucleotide and strepavidin SPA beads were obtained from Amersham Biosiences (UK). Recombinant Human Poly(ADP-Ribose)Polymerase (PARP), purified from E. coli and 6-Biotin-17-NAD^+, were obtained from Trevigen (Gaithersburg, Md.). NAD^+, histone, aminobenzamide, 3-aminobenzamide and Calf Thymus DNA (dcDNA) were obtained from Sigma (St. Louis, Mo.). Stem loop oligonucleotide containing MCAT sequence was obtained from Qiagen. The oligos were dissolved to 1 mM in annealing buffer containing 10 mM Tris HCl (pH 7.5), 1 mM EDTA, and 50 mM NaCl, incubated for 5 minutes at 95° C. and annealed at 45° C. for 45 minutes. Histone H1 (95% electrophoretically pure) was obtained from Roche (Indianapolis, Ind. Biotinylated histone H1 was prepared by treating the protein with Sulfo-NHS-LC-Biotin (Pierce Rockford, Ill.). The biotinylation reaction was conducted by slowly and intermittently adding 3 equivalents of 10 mM Sulfo-NHS-LC-Biotin to 100 μM Histone H1 in phosphate-buffered saline, pH 7.5, at 4° C. with gentle vortexing over 1 minute then incubation at 4° C. for 1 hour. Streptavidin coated (FlashPlate Plus) microplates were obtained from Perkin Elmer (Boston, Mass.).
PARP1 assay was conducted in PARP assay buffer containing 50 mM tris (pH 8.0), 1 mM DTT and 4 mM MgCl2. PARP reactions contained 1.5 μM [^3H]-NAD^+ (1.6 μCi/mmol), 200 nM biotinylated histone H1, 200 nM slDNA, and 1 nM PARP enzyme. Auto reactions utilizing SPA bead-based detection were carried out in 100 μL volumes in white 96 well plates.
Reactions were initiated by adding 50 μL of 2×NAD^+ substrate mixture to 50 μL of 2× enzyme mixture containing PARP and DNA. These reactions were terminated by the addition of 150 μL of 1.5 mM benzamide (1000-fold over its IC50). 170 μL of the stopped reaction mixtures were transferred to streptavidin Flash Plates, incubated for 1 hour and counted using a TopCount microplate scintillation counter. The Ki data (in nM) for representative compounds of this invention were determined from inhibition curves at various substrate concentrations and are shown in TABLE 1.

T1 sequence (P09874 whole entry): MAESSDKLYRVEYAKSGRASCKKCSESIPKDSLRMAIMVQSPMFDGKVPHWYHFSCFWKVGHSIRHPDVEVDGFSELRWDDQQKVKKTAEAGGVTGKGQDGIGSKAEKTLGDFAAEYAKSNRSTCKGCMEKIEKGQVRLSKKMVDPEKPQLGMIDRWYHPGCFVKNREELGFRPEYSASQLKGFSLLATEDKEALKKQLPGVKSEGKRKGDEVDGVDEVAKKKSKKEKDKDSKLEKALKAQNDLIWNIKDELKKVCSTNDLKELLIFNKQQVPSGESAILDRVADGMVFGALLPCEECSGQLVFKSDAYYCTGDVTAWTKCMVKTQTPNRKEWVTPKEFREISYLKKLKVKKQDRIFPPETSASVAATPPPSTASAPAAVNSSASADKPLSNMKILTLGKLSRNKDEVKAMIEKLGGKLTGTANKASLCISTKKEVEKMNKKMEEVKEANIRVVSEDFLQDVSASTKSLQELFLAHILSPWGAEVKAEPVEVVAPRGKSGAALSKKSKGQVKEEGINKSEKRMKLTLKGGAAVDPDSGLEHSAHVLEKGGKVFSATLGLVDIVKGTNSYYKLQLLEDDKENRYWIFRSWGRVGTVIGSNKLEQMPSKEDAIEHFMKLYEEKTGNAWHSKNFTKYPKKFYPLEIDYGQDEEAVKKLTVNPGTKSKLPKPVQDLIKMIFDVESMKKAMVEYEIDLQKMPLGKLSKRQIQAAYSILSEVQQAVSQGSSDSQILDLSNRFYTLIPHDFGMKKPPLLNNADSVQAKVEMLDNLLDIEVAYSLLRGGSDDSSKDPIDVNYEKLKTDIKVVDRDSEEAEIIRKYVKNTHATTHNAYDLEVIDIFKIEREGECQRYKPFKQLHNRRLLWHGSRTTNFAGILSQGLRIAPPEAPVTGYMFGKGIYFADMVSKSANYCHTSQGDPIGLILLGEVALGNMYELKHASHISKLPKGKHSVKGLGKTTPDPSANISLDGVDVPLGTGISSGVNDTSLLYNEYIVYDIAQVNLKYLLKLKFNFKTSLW

| Structure (SMILES) | Ki [nM] |
| --- | --- |
| NC(=O)c1cccc2[nH]c(-c3ccc(C4CCCN4C4CCCCC4)nc3)nc12 (stereo not drawn) [Example 48, 2-[6-(1-cyclohexylpyrrolidin-2-yl),pyridin-3-yl]-1H-benzimidazole-4-carboxamide] | 14 |
| CC(C)CN1CCCC1c1ccc(-c2nc3c(C(N)=O)cccc3[nH]2)s1 (stereo not drawn) [Example 39, 2-(5-(1-isobutylpyrrolidin-2-yl)thien-2-yl)-1H-benzimidazole-4-carboxamide] | 11 |
| NC(=O)c1cccc2[nH]c(-c3ccc(C4CCCN4C4CCOCC4)nc3)nc12 (stereo not drawn) [Example 49, 2-[6-(1-tetrahydro-2H-pyran-4-ylpyrrolidin-2-yl),pyridin-3-yl]-1H-benzimidazole-4-carboxamide] | 17 |
| CC(C)N1CCC(c2nc(-c3nc4c(C(N)=O)cccc4[nH]3)cs2)CC1 [Example 7, 2-(2-(1-isopropylpiperidin-4-yl)-1,3-thiazol-4-yl)-1H-benzimidazole-4-carboxamide] | 61 |
| NC(=O)c1cccc2[nH]c(-c3ccc(C4CCCN4C4CCC4)nc3)nc12 (stereo not drawn) [Example 46, 2-[6-(1-cyclobutylpyrrolidin-2-yl),pyridin-3-yl]-1H-benzimidazole-4-carboxamide] | 17 |
| CN1CCCCC1c1ccc(-c2nc3c(C(N)=O)cccc3[nH]2)s1 (stereo not drawn) [Example 29, 2-(5-(1-methylpiperidin-2-yl)thien-2-yl)-1H-benzimidazole-4-carboxamide] | 14 |
| NC(=O)c1cccc2[nH]c(-c3csc(-c4cccnc4)n3)nc12 [Example 1] | 14.5 |
| NC(=O)c1cccc2[nH]c(-c3ccc(C4CCCN4C4CCCCC4)s3)nc12 (stereo not drawn) [Example 42, 2-(5-(1-cyclohexylpyrrolidin-2-yl)thien-2-yl)-1H-benzimidazole-4-carboxamide] | 12 |
| Cc1nnc(-c2ccc(-c3nc4c(C(N)=O)cccc4[nH]3)nc2)o1 [Example 53, 2-[5-(5-methyl-1,3,4-oxadiazol-2-yl)pyridin-2-yl]-1H-benzimidazole-4-carboxamide] | 317 |

The next molecules have a lower Ki than those just listed; values first:

| Ki [nM] | Structure (SMILES) |
| --- | --- |
| 10 | CN1CCC[C@@H]1c1ccc(-c2nc3c(C(N)=O)cccc3[nH]2)s1 [Example 17, 2-(5-((2R)-1-methylpyrrolidin-2-yl)thien-2-yl)-1H-benzimidazole-4-carboxamide] |
| 6 | NC(=O)c1cccc2[nH]c(-c3ccc(C4CCCN4CC4CC4)s3)nc12 (stereo not drawn) [Example 38, 2-(5-(1-(cyclopropylmethyl)pyrrolidin-2-yl)thien-2-yl)-1H-benzimidazole-4-carboxamide] |
| 6 | NC(=O)c1cccc2[nH]c(-c3ccc([C@H]4CCCN4Cc4ccncc4)s3)nc12 [Example 26, 2-(5-((2R)-1-(pyridin-4-ylmethyl)pyrrolidin-2-yl)thien-2-yl)-1H-benzimidazole-4-carboxamide] |
| 5 | NC(=O)c1cccc2[nH]c(-c3ccc(-c4ccc[nH]4)s3)nc12 [Example 15, 2-(5-(1H-pyrrol-2-yl)thien-2-yl)-1H-benzimidazole-4-carboxamide] |
| 3 | NC(=O)c1cccc2[nH]c(-c3ccc([C@H]4CCCN4C4CCCC4)s3)nc12 [Example 22, 2-(5-((2R)-1-cyclopentylpyrrolidin-2-yl)thien-2-yl)-1H-benzimidazole-4-carboxamide] |
| 0.8 | NC(=O)c1cccc2[nH]c(-c3ccc(-c4cnco4)nc3)nc12 [Example 50, 2-[6-(1,3-oxazol-5-yl)pyridin-3-yl]-1H-benzimidazole-4-carboxamide] |
